These results are taken from ChEMBL document CHEMBL1201862, “PubChem BioAssay data set” (2004).

Some test systems named below: OVCAR-8; SNB-75; HCT-116; SNB-19; LOX IMVI; SF-268; CAKI-1; SK-MEL-28; TK-10; IGROV-1; OVCAR-4; HOP-92; CCRF-CEM; HCT-15; HL-60; RPMI-8226; RXF 393; SF-295; KM12.
Experiment in all cases: growth of human tumour cells (NCI), 48 h

SMILES strings stand for the structures.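 How tested: cells in 96-well plates exposed to compound for 48 hours at five concentrations. GI50 is the concentration that inhibits growth by half.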 Activity calls are given as the source filed them. Cut-off read from the data, not from the text of the source: active = GI50 up to about 1.1 µM and inactive = higher.

In the case of `CC(=O)Nc1ccc(/C=C(\NC(=O)c2ccccc2)C(=O)NNS(=O)(=O)c2ccc(C)cc2)cc1`, the GI50 in the test with OVCAR-8 is > 100 µM (inactive); in the test with SNB-75 it was > 100 µM (inactive); with HCT-116 it was > 100 µM (inactive); in the test on SNB-19, > 100 µM (inactive); in the test with LOX IMVI, 16.4 µM (inactive); with SF-268, 78.9 µM (inactive). For the same molecule, the GI50 in the test on CAKI-1, in the test on SK-MEL-28, in the test with TK-10, in the test on IGROV-1, in the test with OVCAR-4 and in the test on HOP-92 was > 100 µM (inactive) in each case. The GI50 with CCRF-CEM is > 100 µM (inactive); with HCT-15, 18.4 µM; with HL-60, > 100 µM (inactive); in the test with RPMI-8226, 22.5 µM (inactive); with RXF 393, > 100 µM (inactive); with SF-295 it was > 100 µM (inactive). Moreover, the GI50 in the test with KM12 is > 100 µM (inactive).

Regarding `O=C(Nc1cccc(O)c1)C(=O)C1C(=O)NC(=S)NC1=O`, the GI50 in the test with OVCAR-8, in the test on SNB-75, in the test with HCT-116, in the test on SNB-19, in the test on LOX IMVI and in the test on SF-268 was > 100 µM (inactive) each time. The GI50 in the test with CAKI-1, in the test on SK-MEL-28, in the test with IGROV-1, with OVCAR-4, in the test on HOP-92 and with CCRF-CEM was > 100 µM (inactive) in each case. Also, the GI50 is more than 100 µM in the test on HCT-15; > 100 µM (inactive) in the test with HL-60; > 100 µM (inactive) in the test with RPMI-8226; > 100 µM (inactive) with RXF 393; > 100 µM (inactive) in the test on SF-295.

Turning to `Cc1nc(O)nc2c1C(NCCCN(C)C)c1cc(Cl)ccc1N2` (configuration not stated), the GI50 in the test with OVCAR-8 is 15.3 µM (inactive); with SNB-75, 12.8 µM (inactive); in the test on HCT-116, 15 µM (inactive); with SNB-19, 16.4 µM (inactive); in the test on LOX IMVI it was 11.9 µM (inactive); in the test with SF-268, 16.2 µM (inactive). Moreover, the GI50 in the test with SK-MEL-28 is 14 µM (inactive); in the test on TK-10, 16.8 µM (inactive); in the test on IGROV-1, 16.2 µM (inactive); with HOP-92, 10.9 µM (inactive); with CCRF-CEM it was 15.1 µM (inactive); in the test on HL-60, 14 µM (inactive). The GI50 was 17.3 µM (inactive) in the test on RPMI-8226, 13.6 µM (inactive) with RXF 393, 16.6 µM (inactive) in the test on SF-295 and 16 µM (inactive) with KM12.

On to `O=C1OC(c2ccco2)=N/C1=C\c1ccc(Cl)c(Cl)c1`, for which the GI50 with OVCAR-8 was 56.2 µM (inactive); in the test with SNB-75, 53.8 µM (inactive); in the test with HCT-116, 72.8 µM (inactive); in the test with SNB-19, > 100 µM (inactive); in the test with LOX IMVI, > 100 µM (inactive); in the test on SF-268 it was 59.6 µM (inactive). Moreover, the GI50 is 91 µM (inactive) in the test on CAKI-1; > 100 µM (inactive) in the test on SK-MEL-28; 66.7 µM (inactive) in the test with TK-10; > 100 µM (inactive) with IGROV-1; 85.1 µM (inactive) in the test with OVCAR-4; > 100 µM (inactive) with HOP-92. The GI50 with CCRF-CEM was > 100 µM (inactive); in the test on HCT-15 it was more than 100 µM; with HL-60, > 100 µM (inactive); with RPMI-8226, > 100 µM (inactive); in the test on RXF 393, 22 µM (inactive); in the test on SF-295 it was > 100 µM (inactive). Besides, the GI50 with KM12 was > 100 µM (inactive).

Regarding `O=c1c2cc([N+](=O)[O-])ccc2sc2ccsc12`, the GI50 in the test on OVCAR-8, in the test with SNB-75, in the test on HCT-116, in the test on SNB-19, with LOX IMVI and with SF-268 was > 100 µM (inactive) throughout. The GI50 was > 100 µM (inactive) in the test on SK-MEL-28; > 100 µM (inactive) in the test on IGROV-1; > 100 µM (inactive) in the test on OVCAR-4; > 100 µM (inactive) with HOP-92; > 100 µM (inactive) in the test on CCRF-CEM; more than 100 µM in the test on HCT-15. The GI50 with HL-60, in the test on RPMI-8226, in the test on RXF 393, in the test with SF-295 and in the test on KM12 was > 100 µM (inactive) each time.

Regarding `CC1=C(C(=O)NCc2ccccc2)C(c2ccc(N(C)C)cc2)C(C(=O)NCc2ccccc2)=C(C)N1`, the GI50 in the test with OVCAR-8 was > 100 µM (inactive); in the test on SNB-75, 29.3 µM (inactive); in the test with HCT-116, > 100 µM (inactive); with SNB-19, > 100 µM (inactive); in the test on CAKI-1, > 100 µM (inactive); in the test with SK-MEL-28 it was > 100 µM (inactive). The GI50 with TK-10, with IGROV-1, in the test with OVCAR-4, in the test on HOP-92, in the test with CCRF-CEM and with HL-60 was > 100 µM (inactive) in each case. Besides, the GI50 in the test on RPMI-8226 was > 100 µM (inactive); in the test on RXF 393 it was 11.7 µM (inactive); with SF-295 it was > 100 µM (inactive); in the test with KM12 it was > 100 µM (inactive).

On to `CCOC(=O)C12CCC(=O)C=C1[C@@H](C)C(=O)CC2` (some centres not stated), for which the GI50 in the test with OVCAR-8, in the test with SNB-75, with HCT-116, in the test on LOX IMVI, with SF-268 and with SK-MEL-28 was > 100 µM (inactive) each time. For the same molecule, the GI50 with TK-10 was > 100 µM (inactive); in the test on IGROV-1, > 100 µM (inactive); with HOP-92, 93.3 µM (inactive); in the test on HCT-15 it was more than 100 µM; in the test with HL-60, > 100 µM (inactive); in the test with RPMI-8226, > 100 µM (inactive). The GI50 with RXF 393, with SF-295 and with KM12 was > 100 µM (inactive) in each case.

Regarding `O=C(c1ccco1)c1ccccc1C(=O)c1ccco1`, the GI50 with OVCAR-8, in the test on SNB-75, in the test with HCT-116, with SNB-19, in the test with LOX IMVI and in the test on SF-268 was > 100 µM (inactive) each time. For the same molecule, the GI50 with CAKI-1, in the test with SK-MEL-28, with TK-10, with IGROV-1, with OVCAR-4 and in the test with HOP-92 was > 100 µM (inactive) in each case. Also, the GI50 in the test on CCRF-CEM was > 100 µM (inactive); in the test with HCT-15 it was more than 100 µM; in the test on HL-60, > 100 µM (inactive); with RXF 393, > 100 µM (inactive); in the test on SF-295, > 100 µM (inactive); in the test on KM12, > 100 µM (inactive).
